Patent US12594255B2, “Lipids with odd number of carbon atoms and their use as pharmaceutical composition or nutritional supplement” (SunRegen Healthcare AG, priority 2016, dated 2026)
Values joined by “and” are separate entries in the source; they are usually repeats but may differ in a detail not shown here. Equal entries are not always repeated. Where two headings read alike, the source gives them in different places.

Assays:
[1] = test system: mouse primary cortical neurons; experiment: Axonal growth (MAP2 immunolabelling, axonal length); format: cell-based; settings: vehicle control 165.96±90.18 μm
Protocol: Mouse primary cortical neurons were pre-incubated for 48 h with vehicle, 60 nM sAPPα (used as positive control) or different concentrations of Compound C. Then, cortical neurons were treated for 24 h with vehicle. Data are represented as % of vehicle control (Mean±SD).
Cortical neurons from embryonic day 16-17 are prepared from C57Bl6/J mouse fetuses, as described in Example I-1. After 96-h incubation, axonal length is recorded. Briefly, cells were washed with ice-cold PBS and fixed with cold methanol. Following fixation, cells are immunolabelled using a specific antibody detecting total MAP2 protein. Antibodies to MAP2 are excellent markers on neuronal cells, their axons and neuronal dendrites. For quantification of axonal length, six independent images of labelled cells are captured using an inverted microscope. Pictures of cells are analyzed using Neuron-J software and axonal length is recorded manually. A minimum of 100 independent neurons are treated. The data are expressed as mean axonal length (expressed in μm) (Mean±SD). Statistical differences between vehicle-treated cells and cells treated with compounds are determined using a t-test.

[2] = test system: mouse primary cortical neurons challenged with different types toxins; format: cell-based; settings: T3
[3] = test system: mouse primary cortical neurons challenged with camptothecin; experiment: Camptothecin-induced neuronal death, test item added 48 hours before camptothecin; format: cell-based; settings: for neuroprotective and anti-apoptotic effects: 48 h before 1 μM camptothecin; for cell viability: 48 h before 1 μM camptothecin 24 h
Protocol: (§1) Mouse primary neurons were incubated with vehicle or toxins in the absence or presence of different concentrations of compound C added 48 hours before toxin's challenge. After the addition of toxins, cells were further incubated for 24 h.
as §1, with “Herb B” for “compound C”, “camptothecin's” for “toxin's”, “Camptothecin,” for “toxins,”, “h. Data are represented as % of vehicle control (Mean±SD).” for “h.”
The neuro-protective effects of different concentrations of compound C was investigated using mouse primary cortical neurons challenged with camptothecin, which is a cytotoxic quinoline alkaloid which inhibits the DNA enzyme topoisomerase I (topo I).
(§2) Mouse primary neurons were incubated with vehicle or toxins in the absence or presence of different concentrations of compound C added 48 hours before toxin's challenge. After the addition of 1 μM camptothecin, cells were further incubated for 24 h in a final volume of 140 μL per well.
as §2, with “Cells” for “Mouse primary neurons”, “toxins (at the indicated final concentrations described in plate-layout below)” for “toxins”

[4] = test system: age-induced protein aggregates in Saccharomyces cerevisiae; experiment: Age-induced protein aggregates (Hsp104-GFP foci) in old yeast cells; format: cell-based; settings: for proportion of cells with a Hsp104-GFP focus: vehicle only 58.7±10.6%
Protocol: FIG. 9a: Representative images of a young cell, or old cells untreated or treated with Herb B (10 μg/ml) or Compound C (30 μM). Upper panels are maximum projection of z-series stacks of cells stained with fluorescent brightener 28 and imaged in the DAPI channel to reveal bud scars. Lower panel are single focal planes images of the same cells that express Hsp104-GFP and imaged in the GFP channel. Arrow point at an Hsp104-GFP focus.
FIG. 9c: Percentage of cells with an Hsp104-GFP focus. Cells were imaged with the same illumination conditions. All old cells imaged were included (between 75 and 94 cells). All focal planes were examined Mean±SD. P values are adjusted p values from an ANOVA comparing to vehicle only.
FIG. 9d: Average fluorescence intensity of Hsp104-GFP in the cell as a proxy for Hsp104-GFP concentration. Mean±SD. P values are adjusted p values obtained from ANOVA comparing to vehicle only
To test an effect on the formation of age-induced Hsp104-GFP foci, old cells were obtained and cultivated in the presence of Compound C (1 μM, 10 μM and 30 μM). Herb B (10 μg/ml), ethanol (0.3%, vehicle only) or in the absence of any treatment. Untreated young cells were obtained through a simple exponential growth.
Age was determined by staining bud scars with fluorescent brightener 28. […] (FIG. 9b)

[5] = test system: patients suffered from incurable diseases; experiment: Case reports of patients eating functional food containing SBC003; format: in vivo, human
From the text: Compound C (tripentadecanoin) is a natural lipid which can be found in specific herbs, but can also be found in human/animal milk. The patients described in examples II suffered from incurable diseases without any efficient treatment have voluntarily requested the functional food which containing SBC003.

Structure (SMILES): CCCCCCCCCCCCCCC(=O)OCC(COC(=O)CCCCCCCCCCCCCC)OC(=O)CCCCCCCCCCCCCC [Compound C, tripentadecanoin]
- neuronal axon outgrowth (mean axonal length) ([1]; 1000 nM): 199.93±101.17 μm
- neuronal axon outgrowth (mean axonal length) ([1]; 10000 nM): 304.27±149.60 μm
- anti-apoptotic and neuroprotective effects ([2]; Aβ1-42 fibrils, 10000 nM): 223%
- anti-apoptotic and neuroprotective effects ([2]; Aβ25-35 fibrils, 10000 nM): 32.1%
- anti-apoptotic and neuroprotective effects ([2]; alpha-synuclein fibrils, 1000 nM): 34.0%
- anti-apoptotic and neuroprotective effects ([2]; human alpha-synuclein oligomer-induced toxicity, 10000 nM): 45.8%
- anti-apoptotic and neuroprotective effects ([2]; human amylin fibrils, 1000 nM): 45.3%
- anti-apoptotic and neuroprotective effects ([2]; human amylin fibrils, 10000 nM): 52.6%
- anti-apoptotic and neuroprotective effects ([2]; human amylin oligomers, 1000 nM): 30.8%
- anti-apoptotic and neuroprotective effects ([2]; human amylin oligomers, 10000 nM): 37.3%
- anti-apoptotic and neuroprotective effects ([2]; human tau oligomer-induced toxicity, 10000 nM): 46.8%
- anti-apoptotic and neuroprotective effects ([2]; tau fibril-induced toxicity, 10000 nM): 23.1%
- neuroprotective and anti-apoptotic effects ([3]; 10 nM): 37.3%
- cell viability ([3]; 10 nM): 73.5±1.5 % of control
- neuroprotective and anti-apoptotic effects ([3]; 100 nM): 37.2%
- cell viability ([3]; 100 nM): 73.4±5.9 % of control
- proportion of cells with a Hsp104-GFP focus ([4]; 1 μM, not statistically significant): 46.2±4.8%
- proportion of cells with a Hsp104-GFP focus ([4]; 10 μM): 37.5±6.0%
- proportion of cells with a Hsp104-GFP focus ([4]; 30 μM): 34.3±13.7%
- intensity of Hsp104-GFP (increase in old vs young cells) ([4]; compound C 1, 10, 30 μM, herb B 10 μg/ml): reduced the extent of this increase
- serum creatinine, average level ([5]; female, chronic kidney failure, on treatment, before mean 9.21 mg/dl): 8.88 mg/dL
- serum creatinine ([5]; female, chronic kidney failure, single values on treatment, before mean 9.21 mg/dl, listed as SBC003): 8.88 mg/dL and 8.97 mg/dL and 8.55 mg/dL and 9.12 mg/dL
- time breathing by themself ([5]; person, ALS, ventilator, functional food containing SBC003 about 10 mg/day, about one month, before at the most 30 mins/day): about 55 mins/day
- Parkinson's symptoms ([5]; person, Parkinson's disease, functional food containing SBC003 about 10 mg/day, after about one week): abnormal shaking in feet improved
- symptoms of asthma ([5]; person, asthma about 20 years, about 5 mg/time for about few times): greatly improved
- asthma symptoms ([5]; person, asthma about 29 years, functional food containing SBC003 about 5 mg for one or two time): symptoms greatly improved
- facial expression / communication ([5]; person, cerebellar atrophy, functional food containing SBC003 about 10 mg/day, after about one month): started to smile
- urine volume once per day ([5]; person, chronic kidney failure, haemodialysis, no urine before, about 10 to 25 mg/day for about 1 month, after about 2 months): 10 mL
- urine total volume per day ([5]; person, chronic kidney failure, after increasing to 50-100 mg/day for about 2-3 months): about 50 ml per day
- blood glucose level ([5]; person, chronic kidney failure, on treatment, prior to the treatment 130-180 mg/dl): 70 to 105 mg/dL
- vision (patient-reported) ([5]; person, optic atrophy, blind, functional food containing SBC003 about 7 mg/day for 7 days, after about one month): brighter and better vision
- sitting time ([5]; person, spinal fractures, about 20 mg/day, about 10 days, before only 1 hour/time): up to 2 hours
- remaining lumbar pains ([5]; person, spinal fractures, functional food containing SBC003 about 20 mg/day, about 10 days): 40 % of the pains before taking SBC003
